Key:
blackgrass = test: Test Example 4: herbicidal effect by soil treatment (Table 19, symbol J); format: in vivo, blackgrass (Alopecurus myosuroides)
Procedure, shortened: (§1)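 Soil-surface application: an emulsion agent diluted with water to the predetermined dose is sprayed uniformly over seeds lying under roughly 1.5 cm of sterilized diluvial soil. Boxes stay in a greenhouse at 25° C. to 30° C. Three weeks later, each species is graded on previously defined criteria.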

velvetleaf [1] = test: Test Example 4: herbicidal effect by soil treatment (Table 19, symbol M); format: in vivo, velvetleaf (Abutilon theophrasti)
Procedure, shortened: as §1

velvetleaf [2] = test: Test Example 5: herbicidal effect by foliage application, plastic box (Table 20, symbol M); format: in vivo, velvetleaf (Abutilon theophrasti); conditions: foliage application, 3 weeks after application
Procedure, shortened: (§2)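 Sow seeds spot-wise in sterilized diluvial soil; cover with ~1.5 cm soil. Grow 14 days in greenhouse, 25° C. to 30° C. Spray foliage with emulsion diluted to predetermined amount. Rate effect after 3 weeks.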

wild oat [3] = test: Test Example 4: herbicidal effect by soil treatment (Table 19, symbol I); format: in vivo, wild oat (Avena fatua)
Procedure, shortened: as §1

rice flat sedge = test: Test Example 3: herbicidal effect by foliage application, Wagner pot (Table 18, symbol E); format: in vivo, rice flat sedge (Cyperus iria)
Procedure, shortened: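 Plants were sown in alluvial soil held under 0.1–0.5 cm standing water and grown 14 days in a greenhouse at 25–30 °C. An emulsifiable formulation, water-diluted to the set dose, was then sprayed onto the foliage, and effects were scored three weeks later using previously defined criteria.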

green foxtail [4] = test: Test Example 4: herbicidal effect by soil treatment (Table 19, symbol G); format: in vivo, green foxtail (Setaria viridis)
Procedure, shortened: as §1

chickweed = test: Test Example 4: herbicidal effect by soil treatment (Table 19, symbol P); format: in vivo, common chickweed (Stellaria media)
Procedure, shortened: as §1

redroot pigweed = test: Test Example 4: herbicidal effect by soil treatment (Table 19, symbol N); format: in vivo, redroot pigweed (Amaranthus retroflexus)
Procedure, shortened: as §1

southern crabgrass = test: Test Example 5: herbicidal effect by foliage application, plastic box (Table 20, symbol F); format: in vivo, southern crabgrass (Digitaria ciliaris); conditions: foliage application, 3 weeks after application
Procedure, shortened: as §2

oval-leafed pondweed [5] = test: Test Example 1: herbicidal activity, application before weed generation under submerged conditions (Table 16, symbol C); format: in vivo, oval-leafed pondweed (Monochoria vaginalis)
Procedure, shortened: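 Alluvial soil was flooded to 4 cm depth, weed seeds were sown mixed and 2.5-leaf rice seedlings were transplanted. On sowing day, the compound's emulsion, diluted in water to a set dose, was applied to the water surface. Plants grew at 25–30 °C and were scored 0–5 after three weeks.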

persian speedwell = test: Test Example 5: herbicidal effect by foliage application, plastic box (Table 20, symbol R); format: in vivo, Persian speedwell (Veronica persica); conditions: foliage application, 3 weeks after application
Procedure, shortened: as §2

green foxtail [6] = test: Test Example 5: herbicidal effect by foliage application, plastic box (Table 20, symbol G); format: in vivo, green foxtail (Setaria viridis); conditions: foliage application, 3 weeks after application
Procedure, shortened: as §2

Italian ryegrass [7] = test: Test Example 4: herbicidal effect by soil treatment (Table 19, symbol K); format: in vivo, Italian ryegrass (Lolium multiflorum)
Procedure, shortened: as §1

wild oat [8] = test: Test Example 5: herbicidal effect by foliage application, plastic box (Table 20, symbol I); format: in vivo, wild oat (Avena fatua); conditions: foliage application, 3 weeks after application
Procedure, shortened: as §2

late watergrass = test: Test Example 2: herbicidal activity, application during weed generation under submerged conditions (Table 17, symbol A); format: in vivo, late watergrass (Echinochloa oryzicola); conditions: application during weed generation, submerged conditions
Procedure, shortened: (§3)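 Alluvial soil in Wagner pots was flooded to 4 cm depth and sown with the three weeds together; pots were kept in a greenhouse at 25° C. to 30° C. At the one to two leaf stage, an emulsion formulation diluted in water to a set rate went onto the water surface; scored three weeks later.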

Italian ryegrass [9] = test: Test Example 5: herbicidal effect by foliage application, plastic box (Table 20, symbol K); format: in vivo, Italian ryegrass (Lolium multiflorum); conditions: foliage application, 3 weeks after application
Procedure, shortened: as §2

oval-leafed pondweed [10] = test: Test Example 2: herbicidal activity, application during weed generation under submerged conditions (Table 17, symbol C); format: in vivo, oval-leafed pondweed (Monochoria vaginalis); conditions: application during weed generation, submerged conditions
Procedure, shortened: as §3

Compound	herbicidal effect rating, J: blackgrass (blackgrass; 320 g/ha)	herbicidal effect rating, M: velvetleaf (velvetleaf [1]; 320 g/ha)	effect on velvetleaf (M) (velvetleaf [2]; 320 g/ha)	herbicidal effect rating, I: wild oat (wild oat [3]; 320 g/ha)	herbicidal effect on E (rice flat sedge), rating 0-5 (rice flat sedge; 320 g/ha)	herbicidal effect rating, G: green foxtail (green foxtail [4]; 320 g/ha)	herbicidal effect rating, P: chickweed (chickweed; 320 g/ha)	herbicidal effect rating, N: redroot pigweed (redroot pigweed; 320 g/ha)	effect on southern crabgrass (F) (southern crabgrass; 320 g/ha)	Herbicidal effect on C: oval-leafed pondweed (grade 0-5) (oval-leafed pondweed [5]; 320 g/ha applied herbicide)	effect on persian speedwell (R) (persian speedwell; 320 g/ha)	effect on green foxtail (G) (green foxtail [6]; 320 g/ha)	herbicidal effect rating, K: Italian ryegrass (Italian ryegrass [7]; 320 g/ha)	effect on wild oat (I) (wild oat [8]; 320 g/ha)	herbicidal effect rating, A: late watergrass (late watergrass; AAH 320 g/ha)	effect on Italian ryegrass (K) (Italian ryegrass [9]; 320 g/ha)	herbicidal effect rating, C: oval-leafed pondweed (oval-leafed pondweed [10]; AAH 320 g/ha)	other results
COc1ccc(-c2sc3ccc(F)cc3c2-c2c(O)c(C)nn(C)c2=O)cc1 [2-026]	3 (Herbicidal rate of 40% or more and less than 70%)	5 (Herbicidal rate of 90% or more (almost completely withered))	5 (Herbicidal rate of 90% or more (almost completely withered))	3 (Herbicidal rate of 40% or more and less than 70%)	5 (Herbicidal rate of 90% or more (almost completely withered))	3 (Herbicidal rate of 40% or more and less than 70%)	4 (Herbicidal rate of 70% or more and less than 90%)	5 (Herbicidal rate of 90% or more (almost completely withered))	5 (Herbicidal rate of 90% or more (almost completely withered))	4 (Herbicidal rate of 70% or more and less than 90%)	5 (Herbicidal rate of 90% or more (almost completely withered))	4 (Herbicidal rate of 70% or more and less than 90%)	3 (Herbicidal rate of 40% or more and less than 70%)	5 (Herbicidal rate of 90% or more (almost completely withered))	1 (Herbicidal rate of 5% or more and less than 20%)	4 (Herbicidal rate of 70% or more and less than 90%)	5 (Herbicidal rate of 90% or more (almost completely withered))	–
CCCC(=O)Oc1c(C)nn(C)c(=O)c1-c1c(-c2ccccc2OCC)sc2ccc(F)cc12 [2-029]	–	–	–	–	–	–	–	–	–	–	–	–	–	–	–	–	–	herbicidal effect rating, J: blackgrass (blackgrass; 266 g/ha): 0 (Herbicidal rate of 5% or less (almost no effect)); herbicidal effect rating, M: velvetleaf (velvetleaf [1]; 266 g/ha): 0 (Herbicidal rate of 5% or less (almost no effect)); effect on velvetleaf (M) (velvetleaf [2]; 266 g/ha): 5 (Herbicidal rate of 90% or more (almost completely withered)); herbicidal effect rating, I: wild oat (wild oat [3]; 266 g/ha): 3 (Herbicidal rate of 40% or more and less than 70%); herbicidal effect on E (rice flat sedge), rating 0-5 (rice flat sedge; 266 g/ha): 3 (Herbicidal rate of 40% or more and less than 70%); herbicidal effect rating, G: green foxtail (green foxtail [4]; 266 g/ha): 3 (Herbicidal rate of 40% or more and less than 70%); herbicidal effect rating, P: chickweed (chickweed; 266 g/ha): 3 (Herbicidal rate of 40% or more and less than 70%); herbicidal effect rating, N: redroot pigweed (redroot pigweed; 266 g/ha): 4 (Herbicidal rate of 70% or more and less than 90%); effect on southern crabgrass (F) (southern crabgrass; 266 g/ha): 4 (Herbicidal rate of 70% or more and less than 90%); Herbicidal effect on C: oval-leafed pondweed (grade 0-5) (oval-leafed pondweed [5]; 266 g/ha applied herbicide): 0 (Herbicidal rate of 5% or less (almost no effect)); effect on persian speedwell (R) (persian speedwell; 266 g/ha): 5 (Herbicidal rate of 90% or more (almost completely withered)); effect on green foxtail (G) (green foxtail [6]; 266 g/ha): 4 (Herbicidal rate of 70% or more and less than 90%); herbicidal effect rating, K: Italian ryegrass (Italian ryegrass [7]; 266 g/ha): 0 (Herbicidal rate of 5% or less (almost no effect)); effect on wild oat (I) (wild oat [8]; 266 g/ha): 3 (Herbicidal rate of 40% or more and less than 70%); herbicidal effect rating, A: late watergrass (late watergrass; AAH 266 g/ha): 3 (Herbicidal rate of 40% or more and less than 70%); effect on Italian ryegrass (K) (Italian ryegrass [9]; 266 g/ha): 2 (Herbicidal rate of 20% or more and less than 40%); herbicidal effect rating, C: oval-leafed pondweed (oval-leafed pondweed [10]; AAH 266 g/ha): 3 (Herbicidal rate of 40% or more and less than 70%)
CCCOc1ccc(-c2sc3ccc(F)cc3c2-c2c(O)c(C)nn(C)c2=O)cc1 [2-032]	0 (Herbicidal rate of 5% or less (almost no effect))	5 (Herbicidal rate of 90% or more (almost completely withered))	5 (Herbicidal rate of 90% or more (almost completely withered))	0 (Herbicidal rate of 5% or less (almost no effect))	5 (Herbicidal rate of 90% or more (almost completely withered))	3 (Herbicidal rate of 40% or more and less than 70%)	4 (Herbicidal rate of 70% or more and less than 90%)	5 (Herbicidal rate of 90% or more (almost completely withered))	5 (Herbicidal rate of 90% or more (almost completely withered))	4 (Herbicidal rate of 70% or more and less than 90%)	5 (Herbicidal rate of 90% or more (almost completely withered))	5 (Herbicidal rate of 90% or more (almost completely withered))	0 (Herbicidal rate of 5% or less (almost no effect))	3 (Herbicidal rate of 40% or more and less than 70%)	1 (Herbicidal rate of 5% or more and less than 20%)	4 (Herbicidal rate of 70% or more and less than 90%)	5 (Herbicidal rate of 90% or more (almost completely withered))	–
Cc1nn(C)c(=O)c(-c2c(-c3ccc(OC(C)C)cc3)sc3ccc(F)cc23)c1O [2-034]	1 (Herbicidal rate of 5% or more and less than 20%)	4 (Herbicidal rate of 70% or more and less than 90%)	5 (Herbicidal rate of 90% or more (almost completely withered))	0 (Herbicidal rate of 5% or less (almost no effect))	5 (Herbicidal rate of 90% or more (almost completely withered))	4 (Herbicidal rate of 70% or more and less than 90%)	4 (Herbicidal rate of 70% or more and less than 90%)	5 (Herbicidal rate of 90% or more (almost completely withered))	5 (Herbicidal rate of 90% or more (almost completely withered))	2 (Herbicidal rate of 20% or more and less than 40%)	5 (Herbicidal rate of 90% or more (almost completely withered))	5 (Herbicidal rate of 90% or more (almost completely withered))	1 (Herbicidal rate of 5% or more and less than 20%)	3 (Herbicidal rate of 40% or more and less than 70%)	1 (Herbicidal rate of 5% or more and less than 20%)	5 (Herbicidal rate of 90% or more (almost completely withered))	3 (Herbicidal rate of 40% or more and less than 70%)	–

— patent publication US20230085307A1, “PYRIDAZINONE COMPOUND AND HERBICIDE” (NISSAN CHEMICAL CORPORATION, priority 2019, published 2023)
